From patent US9193719B2, “1,2,4-triazol-5-ones and analogs exhibiting anti-cancer and anti-proliferative activities” (Deciphera Pharmaceuticals, LLC, priority 2013, dated 2015)

Columns and labels:
[1] = target: T1, unphosphorylated c-FMS kinase (uFMS, Seq. ID no. 1) (Homo sapiens, UniProt P07333); assay: uFMS kinase enzymatic assay (pyruvate kinase/lactate dehydrogenase coupled); assay type: biochemical; details: ATP 500 μM, rate 3 to 4 h
T1 construct: purchased Millipore
T1 sequence (P07333 538-972): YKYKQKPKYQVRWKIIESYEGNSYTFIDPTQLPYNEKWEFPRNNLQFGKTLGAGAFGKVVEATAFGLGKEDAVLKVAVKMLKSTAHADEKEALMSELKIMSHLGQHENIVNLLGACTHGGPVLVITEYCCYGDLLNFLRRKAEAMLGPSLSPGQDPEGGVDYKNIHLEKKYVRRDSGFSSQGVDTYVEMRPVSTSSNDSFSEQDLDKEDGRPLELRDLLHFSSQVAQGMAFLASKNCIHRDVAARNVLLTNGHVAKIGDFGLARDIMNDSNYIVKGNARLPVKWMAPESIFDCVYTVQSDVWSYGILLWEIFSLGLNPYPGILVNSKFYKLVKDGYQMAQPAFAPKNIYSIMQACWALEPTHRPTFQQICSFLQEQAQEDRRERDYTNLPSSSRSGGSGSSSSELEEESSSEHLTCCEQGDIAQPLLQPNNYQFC
Protocol: uFMS Kinase (Seq. ID No. 1) Assay
Activity of unphosphorylated c-FMS kinase (uFMS, Seq. ID no. 1) was determined by following the production of ADP from the FMS kinase reaction with ATP and poly E4Y as substrates through coupling with the pyruvate kinase/lactate dehydrogenase system (e.g., Schindler et al. Science (2000) 289: 1938-1942). In this assay, the oxidation of NADH (thus the decrease at A340 nm) was continuously monitored spectrophometrically. The reaction mixture (100 μL) contained FMS (purchased from Millipore) (10 nM), polyE4Y (1 mg/mL), MgCl2 (10 mM), pyruvate kinase (4 units), lactate dehydrogenase (0.7 units), phosphoenol pyruvate (1 mM), NADH (0.28 mM) and ATP (500 μM) in 90 mM Tris buffer containing 0.2% octyl-glucoside and 1% DMSO, pH 7.5. The inhibition reaction was started by mixing serial diluted test compound with the above reaction mixture. The absorption at 340 nm was monitored continuously for 4 hours at 30° C. on Synergy 2 plate reader. The reaction rate was calculated using the 3 to 4 h time frame. Percent inhibition was obtained by comparison of reaction rate with that of a control (i.e. in the absence of test compound). IC50 values were calculated from a series of percent inhibition values determined at a range of inhibitor concentrations using software routines as implemented in the GraphPad Prism software package.

[2] = target: T2, unphosphorylated PDGFRβ kinase (uPDGFRβ, Seq. ID No. 3) (Homo sapiens, UniProt P09619); assay: uPDGFRβ kinase enzymatic assay (pyruvate kinase/lactate dehydrogenase coupled); assay type: biochemical; details: ATP 500 μM, rate 1.5 to 2.5 h
T2 construct: purchased DeCode
Protocol: Unphosphorylated PDGFRβ (uPDGFRβ) Kinase (Seq. ID No. 3) Assay
Activity of unphosphorylated PDGFRβ kinase (uPDGFRβ, Seq. ID No. 3) was determined by following the production of ADP from the kinase reaction with ATP and poly E4Y as substrates through coupling with the pyruvate kinase/lactate dehydrogenase system (e.g., Schindler et al. Science (2000) 289: 1938-1942). In this assay, the oxidation of NADH (thus the decrease at A340 nm) was continuously monitored spectrophometrically. The reaction mixture (100 μL) contained PDGFRβ (DeCode, 15.7 nM), polyE4Y (2.5 mg/mL), MgCl2 (10 mM), pyruvate kinase (4 units), lactate dehydrogenase (0.7 units), phosphoenol pyruvate (1 mM) and NADH (0.28 mM) and ATP (500 μM) in a 90 mM Tris buffer containing 0.2% octyl-glucoside and 1% DMSO, at pH 7.5. The inhibition reaction was started by mixing serial diluted test compound with the above reaction mixture. The absorption at 340 nm was monitored continuously for 4 h at 30° C. on a Polarstar Optima or Synergy 2 plate reader. The reaction rate was calculated using the 1.5 to 2.5 h time frame. Percent inhibition was obtained by comparison of reaction rate with that of a control (i.e. with no test compound). IC50 values were calculated from a series of percent inhibition values determined at a range of inhibitor concentrations using software routines as implemented in the GraphPad Prism software package.

T2 sequence (P09619 557-1106): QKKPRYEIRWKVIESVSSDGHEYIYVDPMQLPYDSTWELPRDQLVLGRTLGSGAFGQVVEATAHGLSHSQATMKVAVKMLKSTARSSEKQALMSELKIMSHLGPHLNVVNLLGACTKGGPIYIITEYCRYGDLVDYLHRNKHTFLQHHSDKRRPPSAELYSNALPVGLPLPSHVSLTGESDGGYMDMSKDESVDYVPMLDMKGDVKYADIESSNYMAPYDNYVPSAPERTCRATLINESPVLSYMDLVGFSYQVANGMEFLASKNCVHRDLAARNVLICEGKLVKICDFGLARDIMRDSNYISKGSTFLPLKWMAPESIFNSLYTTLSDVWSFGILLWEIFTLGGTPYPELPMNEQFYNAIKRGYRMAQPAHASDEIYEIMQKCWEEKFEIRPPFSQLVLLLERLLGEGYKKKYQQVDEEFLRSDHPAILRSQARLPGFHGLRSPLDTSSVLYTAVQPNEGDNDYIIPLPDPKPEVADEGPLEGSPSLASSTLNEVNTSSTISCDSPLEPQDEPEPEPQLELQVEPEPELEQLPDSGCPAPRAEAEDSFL

IC50 [1] | IC50 [2] | Compound
≤ 0.01 µM | > 1 µM | Cc1nc(-n2nc(C3(C)CC3)[nH]c2=O)ccc1Oc1ccnc(-c2cnn(C)c2)c1 [Example 27, 1-(6-methyl-5-((2-(1-methyl-1H-pyrazol-4-yl)pyridin-4-yl)oxy)pyridin-2-yl)-3-(1-methylcyclopropyl)-1H-1,2,4-triazol-5(4H)-one]
0.01 to 0.1 µM | > 1 µM | Cc1nc(-n2nc(C(C)(C)C)[nH]c2=O)ccc1Oc1ccnc(NC(=O)N(C)C)c1 [Example 30, 3-(4-((6-(3-(tert-butyl)-5-oxo-4,5-dihydro-1H-1,2,4-triazol-1-yl)-2-methylpyridin-3-yl)oxy)pyridin-2-yl)-1,1-dimethylurea]
≤ 0.01 µM | 0.1 to 1 µM | Cc1cc(-n2nc(C(C)(C)C)[nH]c2=O)ncc1Oc1ccnc(-c2cnn(C)c2)c1 [Example 31, 3-(tert-butyl)-1-(4-methyl-5-((2-(1-methyl-1H-pyrazol-4-yl)pyridin-4-yl)oxy)pyridin-2-yl)-1H-1,2,4-triazol-5(4H)-one]
0.01 to 0.1 µM | 0.1 to 1 µM | Cc1cc(-n2nc(C(C)(C)C)[nH]c2=O)nc(C)c1Oc1ccnc(-c2cnn(C)c2)c1 [Example 33, 3-(tert-butyl)-1-(4,6-dimethyl-5-((2-(1-methyl-1H-pyrazol-4-yl)pyridin-4-yl)oxy)pyridin-2-yl)-1H-1,2,4-triazol-5(4H)-one]
≤ 0.01 µM | 0.1 to 1 µM | Cc1nc(-n2nc(CC(C)(C)C)[nH]c2=O)ccc1Oc1ccnc(-c2cnn(C)c2)c1 [Example 36, 1-(6-methyl-5-((2-(1-methyl-1H-pyrazol-4-yl)pyridin-4-yl)oxy)pyridin-2-yl)-3-neopentyl-1H-1,2,4-triazol-5(4H)-one]
≤ 0.01 µM | 0.1 to 1 µM | Cc1nc(-n2nc(C3CCC3)[nH]c2=O)ccc1Oc1ccnc(-c2cnn(C)c2)c1 [Example 37, 3-cyclobutyl-1-(6-methyl-5-((2-(1-methyl-1H-pyrazol-4-yl)pyridin-4-yl)oxy)pyridin-2-yl)-1H-1,2,4-triazol-5(4H)-one]
≤ 0.01 µM | > 1 µM | CCn1cc(-c2cc(Oc3ccc(-n4nc(C(C)(C)C)[nH]c4=O)nc3C)ccn2)cn1 [Example 38, 3-(tert-butyl)-1-(5-((2-(1-ethyl-1H-pyrazol-4-yl)pyridin-4-yl)oxy)-6-methylpyridin-2-yl)-1H-1,2,4-triazol-5(4H)-one]
0.01 to 0.1 µM | > 1 µM | Cc1nc(-n2nc(C(C)(C)C)[nH]c2=O)ccc1Oc1ccnc(-c2cnco2)c1 [Example 39, 3-(tert-butyl)-1-(6-methyl-5-((2-(oxazol-5-yl)pyridin-4-yl)oxy)pyridin-2-yl)-1H-1,2,4-triazol-5(4H)-one]

The remaining lines, values behind:

Compound | IC50 [1] | IC50 [2]
Cc1nc(-n2nc(Cc3ccc(F)cc3)[nH]c2=O)ccc1Oc1ccnc(-c2cnn(C)c2)c1 [Example 1, 3-(4-fluorobenzyl)-1-(6-methyl-5-((2-(1-methyl-1H-pyrazol-4-yl)pyridin-4-yl)oxy)pyridin-2-yl)-1H-1,2,4-triazol-5(4H)-one] | ≤ 0.01 µM | 0.1 to 1 µM
Cc1nc(-n2nc(Cc3ccccc3)[nH]c2=O)ccc1Oc1ccnc(-c2cnn(C)c2)c1 [Example 2, 3-benzyl-1-(6-methyl-5-((2-(1-methyl-1H-pyrazol-4-yl)pyridin-4-yl)oxy)pyridin-2-yl)-1H-1,2,4-triazol-5(4H)-one] | ≤ 0.01 µM | 0.1 to 1 µM
Cn1cc(-c2cc(Oc3ccc(-n4nc(Cc5ccc(F)cc5)[nH]c4=O)nc3)ccn2)cn1 [Example 3, 3-(4-fluorobenzyl)-1-(5-((2-(1-methyl-1H-pyrazol-4-yl)pyridin-4-yl)oxy)pyridin-2-yl)-1H-1,2,4-triazol-5(4H)-one] | ≤ 0.01 µM | 0.01 to 0.1 µM
Cn1cc(-c2cc(Oc3ccc(-n4nc(C(C)(C)C)[nH]c4=O)nc3)ccn2)cn1 [Example 4, 3-(tert-butyl)-1-(5-((2-(1-methyl-1H-pyrazol-4-yl)pyridin-4-yl)oxy)pyridin-2-yl)-1H-1,2,4-triazol-5(4H)-one] | ≤ 0.01 µM | > 1 µM
Cc1nc(-n2nc(C(C)C)[nH]c2=O)ccc1Oc1ccnc(-c2cnn(C)c2)c1 [Example 5, 3-isopropyl-1-(6-methyl-5-((2-(1-methyl-1H-pyrazol-4-yl)pyridin-4-yl)oxy)pyridin-2-yl)-1H-1,2,4-triazol-5(4H)-one] | 0.01 to 0.1 µM | > 1 µM
Cc1nc(-n2nc(C3CCCCC3)[nH]c2=O)ccc1Oc1ccnc(-c2cnn(C)c2)c1 [Example 6, 3-cyclohexyl-1-(6-methyl-5-((2-(1-methyl-1H-pyrazol-4-yl)pyridin-4-yl)oxy)pyridin-2-yl)-1H-1,2,4-triazol-5(4H)-one] | ≤ 0.01 µM | 0.1 to 1 µM
Cc1cc(-c2cc(Oc3ccc(-n4nc(C(C)(C)C)[nH]c4=O)nc3C)ccn2)ccn1 [Example 9, 3-(tert-butyl)-1-(6-methyl-5-((2′-methyl-[2,4′-bipyridin]-4-yl)oxy)pyridin-2-yl)-1H-1,2,4-triazol-5(4H)-one] | 0.01 to 0.1 µM | > 1 µM
Cc1ccc(-c2cc(Oc3ccc(-n4nc(C(C)(C)C)[nH]c4=O)nc3C)ccn2)cn1 [Example 10, 3-(tert-butyl)-1-(6-methyl-5-((6′-methyl-[2,3′-bipyridin]-4-yl)oxy)pyridin-2-yl)-1H-1,2,4-triazol-5(4H)-one] | 0.01 to 0.1 µM | > 1 µM
Cc1nc(-n2nc(C(C)(C)C)n(C)c2=O)ccc1Oc1ccnc(-c2cnn(C)c2)c1 [Example 13, 3-(tert-butyl)-4-methyl-1-(6-methyl-5-((2-(1-methyl-1H-pyrazol-4-yl)pyridin-4-yl)oxy)pyridin-2-yl)-1H-1,2,4-triazol-5(4H)-one] | 0.01 to 0.1 µM | > 1 µM
Cc1nc(-n2nc(C(C)(C)C)[nH]c2=O)ccc1Oc1ccnc(-c2ccc(C3CCN(C)CC3)cc2)c1 [Example 14, 3-(tert-butyl)-1-(6-methyl-5-((2-(4-(1-methylpiperidin-4-yl)phenyl)pyridin-4-yl)oxy)pyridin-2-yl)-1H-1,2,4-triazol-5(4H)-one] | ≤ 0.01 µM | > 1 µM
COC(C)(C)c1nn(-c2ccc(Oc3ccnc(-c4cnn(C)c4)c3)c(C)n2)c(=O)[nH]1 [Example 16, 3-(2-methoxypropan-2-yl)-1-(6-methyl-5-((2-(1-methyl-1H-pyrazol-4-yl)pyridin-4-yl)oxy)pyridin-2-yl)-1H-1,2,4-triazol-5(4H)-one] | 0.01 to 0.1 µM | > 1 µM
Cc1nc(-n2nc(C3CCOCC3)[nH]c2=O)ccc1Oc1ccnc(-c2cnn(C)c2)c1 [Example 20, 1-(6-methyl-5-((2-(1-methyl-1H-pyrazol-4-yl)pyridin-4-yl)oxy)pyridin-2-yl)-3-(tetrahydro-2H-pyran-4-yl)-1H-1,2,4-triazol-5(4H)-one] | ≤ 0.01 µM | > 1 µM
Cc1nc(-n2nc(CC(C)C)[nH]c2=O)ccc1Oc1ccnc(-c2cnn(C)c2)c1 [Example 22, 3-isobutyl-1-(6-methyl-5-((2-(1-methyl-1H-pyrazol-4-yl)pyridin-4-yl)oxy)pyridin-2-yl)-1H-1,2,4-triazol-5(4H)-one] | ≤ 0.01 µM | > 1 µM
CCC(C)(C)c1nn(-c2ccc(Oc3ccnc(-c4cnn(C)c4)c3)c(C)n2)c(=O)[nH]1 [Example 25, 1-(6-methyl-5-((2-(1-methyl-1H-pyrazol-4-yl)pyridin-4-yl)oxy)pyridin-2-yl)-3-(tert-pentyl)-1H-1,2,4-triazol-5(4H)-one] | ≤ 0.01 µM | > 1 µM
